The values that follow come from patent US8227508B2, “Dietary and pharmaceutical compositions containing carnosol and/or rosmanol and their uses” (DSM IP Assets B.V., priority 2006, dated 2012).

For experiment [1], the system named is mouse. Nature of the experiment: Porsolt's Forced Swim Test (FST). The experiment is classed as in vivo. As for the experimental part: The Forced Swim Test (FST) was first reported in 1977 for screening of antidepressant-like compounds in rats (Porsolt et al 1977 Nature, 266:730-732) and, later, modified for testing mice (Porsolt et al 1977 Arch. Int. Pharmacodynamie, 229:327-336).
In two separate experiments, mice were tested following either i.p. or p.o. administration of carnosol. Mice were individually placed in a cylinder containing water (22° C.) from which they could not escape. The mice were placed in the water for 6 min and the duration of immobility during the last 4 min was measured. Ten to fifteen mice were studied per group. Carnosol was evaluated at 3, 10, 30 mg/kg body weight (i.p. 30 min before the test) or 200, 400, 600 mg/kg body weight (p.o., 24, 5 and 1 h before the test), and compared with vehicle control groups. Imipramine (32 mg/kg i.p., or p.o., respectively), administered under the same experimental conditions, was used as reference substance. Immobility and swimming time were assessed.

Experiment [2] has as its system mouse. Nature of the experiment: Four Plates Test. The experiment is classed as in vivo. The note with it: 32 mg/kg p.o. −1 h (vehicle at −24 h and −5 h). The text has this:
The method, which detects anxiolytic activity, follows that described by Aron et al (1971, Neuropharmacology, 10:459-469). Anxiolytics (benzodiazepines) increase the number of punished crossings. Animals were placed individually in a white plastic enclosure containing a floor consisting of 4 metal plates connected to an electric shock generator (Apelex: type 011346). Each mouse was left to explore freely for 15 seconds. Then, every time it crossed from one plate to another, it received a weak electric shock (2.5 mA, 1.5 s). The number of punished crossings was counted during a 1 minute test. 15 mice were studied per group. The test was performed blind.
Carnosol was evaluated at 3 doses (200, 400, 600 mg/kg), administered p.o. 24 h, 5 h and 1 h before the test, and compared with a vehicle control (corn oil) group.
Clobazam (32 mg/kg p.o.), administered 1 h before the test, was used as reference substance. Mice in this group received additional administrations of vehicle at 24 h and 5 h before the test in order to maintain experimental blinding.

The test system of experiment [3] is mouse. The experiment in a line: Marble burying test. The experiment is classed as in vivo. To be noted: 32 mg/kg i.p., −30 min. Here is the method: The method applied here follows that described by Broekkamp et al. (1986). Mice (n=15 per treatment group) were individually placed in transparent plastic cages (33×21×18 cm) with 5 cm of sawdust on the floor and 25 marbles (diameter 1 cm) grouped in the centre of the cage. A second, up-turned, cage served as a lid. The number of marbles covered by sawdust (by at least two-thirds) was counted at the end of the 30-min test period. Tests were performed by investigators blind to the drug treatment protocol.
Prior to testing, all test cages and marbles were “impregnated” by leaving 10 naive mice in each cage for 15 minutes.
Carnosol (3, 10 and 30 mg/kg) and rosmanol (10, 30 and 100 mg/kg) were administered i.p. 30 min before the test, and compared with a vehicle control group. Fluoxetine (32 mg/kg), administered under the same experimental conditions, was used as a reference substance.

For experiment [4], the target named is T1, human glycine transporter 1b (GlyT1) (Homo sapiens, UniProt P48067).
T1 construct: expressed in transfected cells; host or cells: CHO
T1 sequence (P48067 1-652 isoform P48067-3): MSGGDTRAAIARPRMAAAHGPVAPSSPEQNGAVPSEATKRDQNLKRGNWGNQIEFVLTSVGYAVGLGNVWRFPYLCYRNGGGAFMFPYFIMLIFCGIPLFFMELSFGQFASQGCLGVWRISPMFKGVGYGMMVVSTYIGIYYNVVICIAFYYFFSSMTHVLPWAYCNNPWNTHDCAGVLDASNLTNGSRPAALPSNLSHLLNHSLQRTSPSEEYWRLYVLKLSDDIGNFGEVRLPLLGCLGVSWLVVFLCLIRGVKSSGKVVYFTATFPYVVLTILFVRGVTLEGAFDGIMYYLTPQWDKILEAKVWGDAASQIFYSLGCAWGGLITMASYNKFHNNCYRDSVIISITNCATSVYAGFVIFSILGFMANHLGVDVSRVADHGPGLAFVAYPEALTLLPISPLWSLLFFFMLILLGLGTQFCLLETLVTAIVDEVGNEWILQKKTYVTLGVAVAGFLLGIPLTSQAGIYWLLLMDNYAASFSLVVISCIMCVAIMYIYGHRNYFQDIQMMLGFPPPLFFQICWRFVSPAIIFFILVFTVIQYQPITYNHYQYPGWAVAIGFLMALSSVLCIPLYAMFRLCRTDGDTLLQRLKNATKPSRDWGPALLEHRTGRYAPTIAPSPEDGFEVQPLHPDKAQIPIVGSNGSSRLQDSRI
The experiment in a line: Glycine uptake inhibition in CHO cells expressing GlyT1. The format is cell-based. The note with it: 60 nM [3H]-glycine, read-out: IC50 for tritiated glycine uptake. Here is the method:
CHO cells stably expressing the human glycine transporter 1b cDNA (GlyT1) were routinely grown in Dulbecco's Modified Eagle's Medium (Invitrogen, Carlsbad, USA) containing 10% dialysed foetal calf serum, penicillin, streptomycin, proline and the antibiotic G418. Cells were harvested by trypsinisation one day prior to the assay and were seeded in the above mentioned medium. Immediately prior to the assay, the medium was replaced by uptake buffer containing 150 mM NaCl, 1 mM CaCl2, 2.5 mM KCl, 2.5 mM MgCl2, 10 mM Glucose and 10 mM N-2-hydroxyethylpiperazine-N′-2-ethanesulfonic acid (HEPES buffer).
Glycine uptake into the cells was determined by addition of 60 nM radiolabelled [^3H]-glycine (Amersham Biosciences GE Healthcare, Slough, UK) and incubation for 30 minutes at room temperature. Following removal of unincorporated label by gentle washing three times with the above buffer, incorporated glycine was quantified by liquid scintillation counting.

Regarding `CN(C)CCCN1c2ccccc2CCc2ccccc21` [imipramine, reference compound], the “Duration of immobility (% change from control)” value is reported as −80% in experiment [1] (32 mg/kg i.p., −30 min) and −48% in experiment [1] (32 mg/kg p.o., −24, −5, −1 h).

`CN1C(=O)CC(=O)N(c2ccccc2)c2cc(Cl)ccc21` [Clobazam, reference compound]: in experiment [2], the “Number of punished crossings, % change from control” value was “+118%” and the “Number of punished crossings, mean” value was 6.1.

With `CNCCC(Oc1ccc(C(F)(F)F)cc1)c1ccccc1` (stereo not drawn) [Fluoxetine, fluoxetine, reference compound], in experiment [3], the “Number of marbles buried (% change from control)” value is listed as −92%.

By IC50 is commonly meant the concentration that inhibits the measured activity by half. With `CN(CC[C@@H](Oc1ccc(C(F)(F)F)cc1)c1ccccc1)CC(=O)O` [ORG24598, reference compound], the IC50 in experiment [4] came out at 20 nM.
